Values of other authors in patent publication US11793802B2, “Treatment of acute myeloid leukemia (AML) with venetoclax failure” (Sumitomo Pharma Oncology, Inc., priority 2019, dated 2023).

What was measured:
[1] = test system: hematological cancers, including AML; conditions: patients treated with venetoclax

## Nc1ncn([C@@H]2O[C@H](CO)[C@@H](O)[C@H]2O)c(=O)n1 [azacitidine]
MCL-1 protein
  effect on MCL-1 protein levels in blasts: reduce MCL-1 protein levels

## CC1(C)CCC(CN2CCN(c3ccc(C(=O)NS(=O)(=O)c4ccc(NCC5CCOCC5)c([N+](=O)[O-])c4)c(Oc4cnc5[nH]ccc5c4)c3)CC2)=C(c2ccc(Cl)cc2)C1 [venetoclax]
[1]
  patients demonstrated complete remission: 8-20%
  patients showed no response: 20-30%
[1]; after 18 months
  patients showed disease progression: ~50%

## CN1CC[C@H](c2c(OP(=O)(O)O)cc(O)c3c(=O)cc(-c4ccccc4Cl)oc23)[C@H](O)C1 [Formula (I-b)]
other
  oral bioavailability: orally bioavailable
